Structures can show the parent of a compound that is named as a salt. Where two headings read alike, the source gives them in different places.
Experiments:
mouse TREK-1 (mTREK-1t) = biological target: T1, mouse TREK-1 (mTREK-1t) (Mus musculus, UniProt P97438); assay: FLIPR membrane potential assay in HEK-293 cells stably transfected with mTREK-1t; assay type: cell-based; details: for activation at 0.0005 %: HEK293, Sample Conc. 0.0005%; for activation at 0.0005 % / activation at 0.001 % / activation at 0.0021 % / activation at 0.0042 % / activation at 0.0083 % / activation at 0.0167 % / activation at 0.033 %: read-out: Activity Level (percentage of activity relative to 100% with 50 mM potassium nitrate); for activation at 0.001 %: HEK293, Sample Conc. 0.0010%; for activation at 0.0021 %: HEK293, Sample Conc. 0.0021%; for activation at 0.0042 %: HEK293, Sample Conc. 0.0042%; for activation at 0.0083 %: HEK293, Sample Conc. 0.0083%; for activation at 0.0167 %: HEK293, Sample Conc. 0.0167%; for activation at 0.033 %: HEK293, Sample Conc. 0.0330%
T1 construct: (mTREK-1t) by Capital Biosciences (Rockville, Md.)
T1 sequence (P97438 with tags, fused parts or gaps limits assumed): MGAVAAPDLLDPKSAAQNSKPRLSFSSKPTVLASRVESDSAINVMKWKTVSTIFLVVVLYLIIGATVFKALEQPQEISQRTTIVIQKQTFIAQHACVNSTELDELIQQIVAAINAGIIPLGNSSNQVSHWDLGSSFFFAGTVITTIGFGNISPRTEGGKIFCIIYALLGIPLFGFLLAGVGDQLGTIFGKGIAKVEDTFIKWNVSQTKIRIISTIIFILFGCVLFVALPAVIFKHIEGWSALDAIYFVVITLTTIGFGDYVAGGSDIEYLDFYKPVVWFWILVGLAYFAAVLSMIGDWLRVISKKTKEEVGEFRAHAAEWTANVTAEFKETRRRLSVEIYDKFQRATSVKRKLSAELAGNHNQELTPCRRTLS

[1] = concentration level where the cooling effect can be clearly recognized; cited from earlier work
[2] = sample concentration 50 μM, relative to 50 mM potassium nitrate
[3] = sample concentration 100 μM, relative to 50 mM potassium nitrate
[4] = sample concentration 200 μM, relative to 50 mM potassium nitrate

`CCCOC(=O)CCCCC(=O)OCCC` [Dipropyl Adipate] gave an activation at 0.0005 % (mouse TREK-1 (mTREK-1t)) of 0%, an activation at 0.001 % (mouse TREK-1 (mTREK-1t)) of 0% and an activation at 0.0021 % (mouse TREK-1 (mTREK-1t)) of 0%. The activation at 0.0042 % (mouse TREK-1 (mTREK-1t)) was 0%, the activation at 0.0083 % (mouse TREK-1 (mTREK-1t)) was 0.51% and the activation at 0.0167 % (mouse TREK-1 (mTREK-1t)) was 2.66%. The activation at 0.033 % (mouse TREK-1 (mTREK-1t)) was 12.2%.
For `CC(C)[C@@H]1CC[C@@H](C)C[C@H]1O` [L- Menthol], the cooling threshold [1] is listed as “about 800 ppb”.
For `COC(=O)c1ccccc1O` [Methyl Salicylate], the “percentage of TREK-1 activity relative to potassium nitrate” value (mouse TREK-1 (mTREK-1t); Sample Concentration 0.0005%) was 2.35%, the “percentage of TREK-1 activity relative to potassium nitrate” value (mouse TREK-1 (mTREK-1t); Sample Concentration 0.0010%) was 2.33% and the “percentage of TREK-1 activity relative to potassium nitrate” value (mouse TREK-1 (mTREK-1t); Sample Concentration 0.0021%) was 2.66%. For the same compound, the “percentage of TREK-1 activity relative to potassium nitrate” value (mouse TREK-1 (mTREK-1t); Sample Concentration 0.0042%) was 4.94%, the “percentage of TREK-1 activity relative to potassium nitrate” value (mouse TREK-1 (mTREK-1t); Sample Concentration 0.0083%) was 8.31% and the “percentage of TREK-1 activity relative to potassium nitrate” value (mouse TREK-1 (mTREK-1t); Sample Concentration 0.0167%) was 17.4%. The “percentage of TREK-1 activity relative to potassium nitrate” value (mouse TREK-1 (mTREK-1t); Sample Concentration […]) was 29.43%.
For `O=[N+]([O-])[O-].[K+]` [Potassium Nitrate, reference compound], the “Activity Level (percentage of activity relative to 100% with 50 mM potassium nitrate)” value (mouse TREK-1 (mTREK-1t)) was 100%, the “Fluorescence per Sample concentration (percent activity relative to potassium nitrate)” value (mouse TREK-1 (mTREK-1t)) was 100% and the “percentage of TREK-1 activity relative to potassium nitrate” value (mouse TREK-1 (mTREK-1t)) was 100%.
In the case of `CC(C)[C@@H]1CC[C@@H](C)C[C@@H]1O` [Sample 1-neomenthol, 1-neomenthol], the cooling threshold [1] is given as “about 3,000 ppb”.
With `Cc1ccc(C(C)C)c(O)c1` [Thymol] the “percentage of TREK-1 activity relative to potassium nitrate” value (mouse TREK-1 (mTREK-1t); Sample Concentration 0.0005%) was 4.57%, the “percentage of TREK-1 activity relative to potassium nitrate” value (mouse TREK-1 (mTREK-1t); Sample Concentration 0.0010%) was 4.82% and the “percentage of TREK-1 activity relative to potassium nitrate” value (mouse TREK-1 (mTREK-1t); Sample Concentration 0.0021%) was 3.86%. For the same compound, the “percentage of TREK-1 activity relative to potassium nitrate” value (mouse TREK-1 (mTREK-1t); Sample Concentration 0.0042%) was 4.09%, the “percentage of TREK-1 activity relative to potassium nitrate” value (mouse TREK-1 (mTREK-1t); Sample Concentration 0.0083%) was 6.73% and the “percentage of TREK-1 activity relative to potassium nitrate” value (mouse TREK-1 (mTREK-1t); Sample Concentration 0.0167%) was 31.4%. For the same compound, the “percentage of TREK-1 activity relative to potassium nitrate” value (mouse TREK-1 (mTREK-1t); Sample Concentration […]) was 65.22%.
Compound `CCOC(=O)CC(O)(CC(=O)OCC)C(=O)OCC` [Triethyl Citrate] has an activation at 0.0005 % (mouse TREK-1 (mTREK-1t)) of 4.06%, an activation at 0.001 % (mouse TREK-1 (mTREK-1t)) of 1.7% and an activation at 0.0021 % (mouse TREK-1 (mTREK-1t)) of 2.98%. For the same compound, the activation at 0.0042 % (mouse TREK-1 (mTREK-1t)) was 3.67%, the activation at 0.0083 % (mouse TREK-1 (mTREK-1t)) was 6.17% and the activation at 0.0167 % (mouse TREK-1 (mTREK-1t)) was 13.4%. The activation at 0.033 % (mouse TREK-1 (mTREK-1t)) was 17.2%.
For `CC(C)[C@@H]1CC[C@@H](C)C[C@@H]1O` [d-neomenthol], the cooling threshold [1] is listed as “about 25,000 ppb”.
For `CCCCCCCCC1CCC(=O)O1` (stereo not drawn) [gamma-Dodecalactone], the “Fluorescence per Sample concentration (percent activity relative to potassium nitrate)” value (mouse TREK-1 (mTREK-1t); [2]) was 1.77%, the “Fluorescence per Sample concentration (percent activity relative to potassium nitrate)” value (mouse TREK-1 (mTREK-1t); [3]) was 3.41% and the “Fluorescence per Sample concentration (percent activity relative to potassium nitrate)” value (mouse TREK-1 (mTREK-1t); [4]) was 18.74%.
For `CCCCCCCCCCC1CCC(=O)O1` (stereo not drawn) [gamma-Tetradecalactone], the “Fluorescence per Sample concentration (percent activity relative to potassium nitrate)” value (mouse TREK-1 (mTREK-1t); [2]) was 3.21%, the “Fluorescence per Sample concentration (percent activity relative to potassium nitrate)” value (mouse TREK-1 (mTREK-1t); [3]) was 3.54% and the “Fluorescence per Sample concentration (percent activity relative to potassium nitrate)” value (mouse TREK-1 (mTREK-1t); [4]) was 9.82%. For the same compound, the “Fluorescence per Sample concentration (percent activity relative to potassium nitrate)” value (mouse TREK-1 (mTREK-1t); sample concentration 400 μM, relative to 50 mM potassium nitrate) was 15.89%.
For L-Carvone, the “percentage of TREK-1 activity relative to potassium nitrate” value (mouse TREK-1 (mTREK-1t); Sample Concentration 0.0005%) was 1.85%, the “percentage of TREK-1 activity relative to potassium nitrate” value (mouse TREK-1 (mTREK-1t); Sample Concentration 0.0010%) was 0.97% and the “percentage of TREK-1 activity relative to potassium nitrate” value (mouse TREK-1 (mTREK-1t); Sample Concentration 0.0021%) was 2.7%. For the same compound, the “percentage of TREK-1 activity relative to potassium nitrate” value (mouse TREK-1 (mTREK-1t); Sample Concentration 0.0042%) was 2.03%, the “percentage of TREK-1 activity relative to potassium nitrate” value (mouse TREK-1 (mTREK-1t); Sample Concentration 0.0083%) was 9.51% and the “percentage of TREK-1 activity relative to potassium nitrate” value (mouse TREK-1 (mTREK-1t); Sample Concentration 0.0167%) was 24.1%. The “percentage of TREK-1 activity relative to potassium nitrate” value (mouse TREK-1 (mTREK-1t); Sample Concentration […]) was 98.65%.

— US9884130B2, “Compositions for delivery of oral comfort sensations” (The Procter & Gamble Company, priority 2013, dated 2018)
